Key:
[1] = molecular target: Acetylcholinesterase (Electrophorus electricus) (UniProt O42275)
Description: Non-competitive inhibitory activity against acetylcholinesterase (AChE)

[2] = molecular target: Acetylcholinesterase (Electrophorus electricus) (UniProt O42275); remark: listed apart in the source
Description: Competitive inhibitory activity against acetylcholinesterase (AChE)

Sequence of Acetylcholinesterase (Electrophorus electricus) (O42275 24-633 limits assumed): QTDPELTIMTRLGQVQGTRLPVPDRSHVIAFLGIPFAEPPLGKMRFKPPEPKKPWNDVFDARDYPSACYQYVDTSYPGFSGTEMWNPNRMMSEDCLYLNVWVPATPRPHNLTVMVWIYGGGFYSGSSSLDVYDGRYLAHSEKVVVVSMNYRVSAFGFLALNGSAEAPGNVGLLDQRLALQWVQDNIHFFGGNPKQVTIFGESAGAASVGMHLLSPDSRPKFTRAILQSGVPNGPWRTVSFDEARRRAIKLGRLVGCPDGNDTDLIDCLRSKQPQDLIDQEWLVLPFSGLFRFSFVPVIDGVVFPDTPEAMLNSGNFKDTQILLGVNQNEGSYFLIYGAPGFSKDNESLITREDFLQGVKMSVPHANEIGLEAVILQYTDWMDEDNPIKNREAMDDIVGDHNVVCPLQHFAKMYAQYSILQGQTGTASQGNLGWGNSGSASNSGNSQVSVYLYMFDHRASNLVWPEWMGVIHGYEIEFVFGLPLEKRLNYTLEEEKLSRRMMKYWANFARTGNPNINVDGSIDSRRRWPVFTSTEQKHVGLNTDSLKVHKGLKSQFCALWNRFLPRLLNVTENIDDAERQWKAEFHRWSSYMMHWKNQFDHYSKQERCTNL

Row | SMILES | pKinc [1] | pKic [2]
1 | Cc1c(C)c2ccc(OCc3cccc(O)c3)cc2oc1=O | 4.83 | 
2 | Cc1c(C)c2ccc(OCCc3ccccc3)cc2oc1=O | 4.8 | 
3 | Cc1c(C)c2ccc(OCc3cccc(N)c3)cc2oc1=O | 4.74 | 
4 | Cc1c(C)c2ccc(O)cc2oc1=O | 4 | 4.54
5 | O=c1ccoc2ccc(OCc3ccccc3)cc12 | 4.29 | 
6 | Cc1c(C)c2ccc(OCc3ccccc3)cc2oc1=O | 5.39 | 
7 | COc1ccc2c(C)c(C)c(=O)oc2c1 | 4.56 | 4.8
8 | Cc1ccccc1COc1ccc2c(C)c(C)c(=O)oc2c1 | 4.68 | 
9 | Cc1cc(=O)c2cc(OCc3ccccc3)ccc2o1 | 4.53 | 4.78
10 | Cc1c(C)c2ccc(OCc3cc(F)cc(F)c3)cc2oc1=O | 4.73 | 
11 | Cc1c(C)c2ccc(OCc3ccc(F)c(F)c3)cc2oc1=O | 5.06 | 
